Data published in PubChem BioAssay (NCI).
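Tested at 5 concentrations; 48 h exposure; 96-well plates; endpoints linearly interpolated, else capped at highest concentration. TGI is the concentration that stops growth completely.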

How the values were obtained:
Test in all cases: NCI tumour cell line growth inhibition, 48 h
DMS 273 small cell lung = tested on: DMS 273 small cell lung
DMS 114 small cell lung = tested on: DMS 114 small cell lung
LXFL 529 NSCLC = tested on: LXFL 529 NSCLC
HOP-18 NSCLC = tested on: HOP-18 NSCLC
SN12K1 renal = tested on: SN12K1 renal
P388 leukemia = tested on: P388 leukemia
XF 498 CNS = tested on: XF 498 CNS
P388/ADR leukemia = tested on: P388/ADR leukemia
RXF-631 renal = tested on: RXF-631 renal

Row | Compound | TGI (DMS 273 small cell lung) [µM] | TGI (DMS 114 small cell lung) [µM] | TGI (LXFL 529 NSCLC) [µM] | TGI (HOP-18 NSCLC) [µM] | TGI (SN12K1 renal) [µM] | TGI (P388 leukemia) [µM] | TGI (XF 498 CNS) [µM] | TGI (P388/ADR leukemia) [µM] | TGI (RXF-631 renal) [µM]
1 | COCC(=O)[C@]1(O)Cc2c(O)c3c(c(O)c2[C@@H](OC2CC(N)C(O)C(C)O2)C1)C(=O)c1c(OC)cccc1C3=O (stereo partly specified) | 0.603 | 0.477 | 2.11 |  |  |  |  |  | 
2 | Cc1cc(=O)c2c(O)c3c(O)cc(O)c4c5c(O)cc(O)c6c(O)c7c(=O)cc(C)c8c1c2c(c34)c(c65)c78 | > 100 |  |  | > 100 | > 100 | 72.8 | > 100 | > 100 | 
3 | CC(=O)c1ccc(NC(=O)/C(=N\NC(N)=O)C(C#N)CC(C)(C)C=O)cc1 (stereo unspecified) | > 100 | > 100 | > 100 |  |  |  | > 100 |  | 
4 | C[C@]12CCC(=O)C=C1CC[C@@H]1[C@@H]2C(=O)C[C@@]2(C)[C@H]1CC[C@]2(O)C(=O)CO | > 100 | > 100 | > 100 | > 100 |  |  | > 100 |  | 
5 | COc1ccc(C2C(C(=O)O)=C(COC(C)=O)Oc3cc4c(cc32)OCO4)cc1 (stereo unspecified) | > 100 | > 100 |  | > 100 |  |  | > 100 |  | > 100
6 | Cc1ccc(NC(=O)c2cccc([N+](=O)[O-])c2O)c(C)c1 |  | > 100 | > 100 | 6.44 |  |  |  |  | 
